What was measured:
HiBit-BRM fusion protein = target: T1, HiBit-BRM fusion protein (Homo sapiens, UniProt P51531); experiment: HiBiT-BRM cell-based degradation assay (Nano-Glo HiBiT Lytic Detection, 24 h); conditions: HeLa cell line expressing HiBiT-BRM; for DC50: read-out: BRM HiBit Degradation IC50
T1 construct: expressed in transfected cells
How it was run: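 HeLa cells stably expressing HiBiT-BRM were treated for 24 h with compounds (10-point 3-fold dilutions, 30 μM final top dose, in duplicate). HiBiT was detected by lytic LgBiT complementation luminescence. % degradation was normalized to DMSO (high control) and 2 μM of a reference BRM/BRG1 degrader (low control).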

[1] = target: T2, HiBit-BRG1 fusion protein (Homo sapiens, UniProt P51532); experiment: HiBiT-BRG1 cell-based degradation assay (Nano-Glo HiBiT Lytic Detection, 24 h); conditions: HeLa cell line expressing HiBit-BRG1 and LgBit; for Dmax: read-out: BRG1 HiBit Degradation Maximum (%); for DC50: read-out: BRMG1 HiBit Degradation IC50
T2 construct: expressed in transfected cells
How it was run: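 Seed 5000 HeLa HiBit-BRG1/LgBit cells per well; treat 24 h; equilibrate 15 min at room temperature; add Nano-Glo HiBiT lytic reagent, shake 10 min, read luminescence. Percent degradation is scaled between DMSO and 2 μM reference degrader wells.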

T2 sequence (P51532 whole entry, the tested form may be a part): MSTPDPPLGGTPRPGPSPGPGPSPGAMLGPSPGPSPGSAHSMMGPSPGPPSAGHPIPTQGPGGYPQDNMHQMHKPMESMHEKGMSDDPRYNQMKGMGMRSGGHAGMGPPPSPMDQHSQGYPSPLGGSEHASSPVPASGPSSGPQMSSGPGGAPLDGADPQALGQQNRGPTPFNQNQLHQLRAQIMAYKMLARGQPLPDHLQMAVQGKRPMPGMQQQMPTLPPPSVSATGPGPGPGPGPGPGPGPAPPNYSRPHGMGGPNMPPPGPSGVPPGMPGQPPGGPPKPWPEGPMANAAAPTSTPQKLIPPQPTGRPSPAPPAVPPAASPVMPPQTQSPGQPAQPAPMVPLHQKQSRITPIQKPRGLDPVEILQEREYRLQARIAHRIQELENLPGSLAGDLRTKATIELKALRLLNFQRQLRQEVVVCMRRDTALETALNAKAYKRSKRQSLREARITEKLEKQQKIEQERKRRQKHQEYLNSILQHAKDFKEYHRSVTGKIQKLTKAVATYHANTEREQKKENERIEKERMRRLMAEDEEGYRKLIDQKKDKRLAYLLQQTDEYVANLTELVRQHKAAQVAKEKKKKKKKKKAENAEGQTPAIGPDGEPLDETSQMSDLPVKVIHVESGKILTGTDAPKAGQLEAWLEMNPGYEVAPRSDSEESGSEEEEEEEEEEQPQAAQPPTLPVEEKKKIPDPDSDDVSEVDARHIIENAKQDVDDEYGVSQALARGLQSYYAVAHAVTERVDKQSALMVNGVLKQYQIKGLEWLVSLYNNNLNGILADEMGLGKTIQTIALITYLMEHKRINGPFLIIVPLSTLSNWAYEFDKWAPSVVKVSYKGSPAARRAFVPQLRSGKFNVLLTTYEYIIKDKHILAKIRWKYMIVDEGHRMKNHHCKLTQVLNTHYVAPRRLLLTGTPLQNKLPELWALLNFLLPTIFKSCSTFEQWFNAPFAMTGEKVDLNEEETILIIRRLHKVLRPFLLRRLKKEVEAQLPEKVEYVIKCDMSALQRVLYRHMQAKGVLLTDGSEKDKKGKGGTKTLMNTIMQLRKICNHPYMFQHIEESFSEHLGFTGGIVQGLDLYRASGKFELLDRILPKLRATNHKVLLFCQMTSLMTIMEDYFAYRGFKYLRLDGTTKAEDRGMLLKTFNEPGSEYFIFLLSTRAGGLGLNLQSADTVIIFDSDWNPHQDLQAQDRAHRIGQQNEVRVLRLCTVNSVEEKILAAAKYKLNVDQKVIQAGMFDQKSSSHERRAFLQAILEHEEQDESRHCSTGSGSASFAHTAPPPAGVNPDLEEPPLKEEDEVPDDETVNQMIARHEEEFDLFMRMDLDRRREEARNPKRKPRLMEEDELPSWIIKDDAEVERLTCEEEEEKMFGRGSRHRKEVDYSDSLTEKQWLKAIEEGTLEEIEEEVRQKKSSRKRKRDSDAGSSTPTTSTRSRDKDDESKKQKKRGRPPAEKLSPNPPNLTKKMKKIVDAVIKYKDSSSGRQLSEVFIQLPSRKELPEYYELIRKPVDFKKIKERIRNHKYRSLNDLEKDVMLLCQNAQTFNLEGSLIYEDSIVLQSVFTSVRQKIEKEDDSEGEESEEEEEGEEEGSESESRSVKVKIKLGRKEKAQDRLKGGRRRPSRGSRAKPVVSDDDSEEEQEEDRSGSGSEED
T1 sequence (P51531 whole entry, the tested form may be a part): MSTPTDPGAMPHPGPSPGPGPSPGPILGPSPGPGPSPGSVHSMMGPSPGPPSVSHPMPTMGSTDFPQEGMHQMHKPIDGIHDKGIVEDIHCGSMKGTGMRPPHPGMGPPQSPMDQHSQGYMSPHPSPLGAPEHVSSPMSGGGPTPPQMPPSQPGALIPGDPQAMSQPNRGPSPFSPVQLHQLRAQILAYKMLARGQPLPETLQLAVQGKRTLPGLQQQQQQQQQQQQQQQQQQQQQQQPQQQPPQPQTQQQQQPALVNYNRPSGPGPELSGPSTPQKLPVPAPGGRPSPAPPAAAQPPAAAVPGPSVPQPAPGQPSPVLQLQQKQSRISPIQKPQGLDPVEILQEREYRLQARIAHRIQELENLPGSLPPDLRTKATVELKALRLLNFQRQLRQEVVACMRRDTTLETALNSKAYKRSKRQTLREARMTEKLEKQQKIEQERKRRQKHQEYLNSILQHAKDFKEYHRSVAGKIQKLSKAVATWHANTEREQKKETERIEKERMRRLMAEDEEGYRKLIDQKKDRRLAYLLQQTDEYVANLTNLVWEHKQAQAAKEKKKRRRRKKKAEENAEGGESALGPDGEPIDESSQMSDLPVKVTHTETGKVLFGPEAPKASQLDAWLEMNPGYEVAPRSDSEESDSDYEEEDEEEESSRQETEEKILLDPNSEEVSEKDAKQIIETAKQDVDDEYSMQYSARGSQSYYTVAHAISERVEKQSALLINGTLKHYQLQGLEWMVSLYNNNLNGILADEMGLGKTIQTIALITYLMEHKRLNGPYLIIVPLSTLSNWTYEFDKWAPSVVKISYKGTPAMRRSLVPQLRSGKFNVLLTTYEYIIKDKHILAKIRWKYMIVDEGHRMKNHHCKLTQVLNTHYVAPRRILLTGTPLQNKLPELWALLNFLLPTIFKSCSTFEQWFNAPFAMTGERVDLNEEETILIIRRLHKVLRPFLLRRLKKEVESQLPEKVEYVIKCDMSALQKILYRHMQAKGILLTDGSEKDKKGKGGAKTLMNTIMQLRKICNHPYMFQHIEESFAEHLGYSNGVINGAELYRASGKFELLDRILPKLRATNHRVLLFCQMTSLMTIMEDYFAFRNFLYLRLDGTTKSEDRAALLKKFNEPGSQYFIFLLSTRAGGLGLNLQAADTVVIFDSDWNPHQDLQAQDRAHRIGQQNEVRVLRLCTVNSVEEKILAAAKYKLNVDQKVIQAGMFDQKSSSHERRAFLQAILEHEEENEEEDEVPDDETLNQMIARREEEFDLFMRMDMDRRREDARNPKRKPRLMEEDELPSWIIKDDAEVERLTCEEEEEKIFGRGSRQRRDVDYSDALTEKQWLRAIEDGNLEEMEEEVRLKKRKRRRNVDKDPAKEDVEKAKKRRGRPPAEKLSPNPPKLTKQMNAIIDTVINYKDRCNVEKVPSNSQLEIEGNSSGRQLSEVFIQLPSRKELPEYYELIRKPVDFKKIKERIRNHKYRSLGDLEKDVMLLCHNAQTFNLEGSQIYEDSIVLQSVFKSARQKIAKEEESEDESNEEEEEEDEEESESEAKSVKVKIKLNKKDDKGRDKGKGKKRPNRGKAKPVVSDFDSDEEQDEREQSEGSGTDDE

SMILES	BRM HiBit Degradation Maximum (%) (HiBit-BRM fusion protein)	Dmax [1] [%]	DC50 (HiBit-BRM fusion protein) [nM]	DC50 [1] [nM]
Cc1ncsc1C12CC(CNC(=O)[C@@H]3C[C@@H](O)CN3C(=O)[C@H](c3cc(OCCN4CC(c5cc6cc(-c7ccccc7O)nnc6[nH]5)C4)no3)C(C)C)(C1)C2 (single isomer, unassigned) [Compound 114]	C (“C” indicates maximum degradation < 50%)	< 50		
Cc1ncsc1C12CC(CNC(=O)[C@@H]3C[C@@H](O)CN3C(=O)[C@@H](c3cc(OCCN4CC(c5cc6cc(-c7ccccc7O)nnc6[nH]5)C4)no3)C(C)C)(C1)C2 (single isomer, unassigned) [Compound 115]	C (“C” indicates maximum degradation < 50%)	< 50		
CC(C)[C@H](C(=O)N1C[C@H](O)C[C@H]1C(=O)N[C@@H](C)c1ccc(-c2ccccc2F)cc1)c1cc(OCCN2CC(c3cc4cc(-c5ccccc5O)nnc4[nH]3)C2)no1 (single isomer, unassigned) [Compound 117]	C (“C” indicates maximum degradation < 50%)	< 50		
CC(C)[C@@H](C(=O)N1C[C@H](O)C[C@H]1C(=O)N[C@@H](C)c1ccc(-c2ccccc2F)cc1)c1cc(OCCN2CC(c3cc4cc(-c5ccccc5O)nnc4[nH]3)C2)no1 (single isomer, unassigned) [Compound 119]	A (“A” indicates maximum degradation ≥ 75%)	> 50	> 10	> 1000
Cc1ncsc1-c1ccc([C@H](C)NC(=O)[C@@H]2C[C@@H](O)CN2C(=O)[C@H](c2cc(CN3CCc4[nH]c5nnc(-c6ccccc6O)cc5c4C3)no2)C(C)C)cc1 (single isomer, unassigned) [Compound 135]	C (“C” indicates maximum degradation < 50%)	< 50		
Cc1ncsc1-c1ccc([C@H](C)NC(=O)[C@@H]2C[C@@H](O)CN2C(=O)[C@@H](c2cc(CN3CCc4[nH]c5nnc(-c6ccccc6O)cc5c4C3)no2)C(C)C)cc1 (single isomer, unassigned) [Compound 136]	C (“C” indicates maximum degradation < 50%)	< 50		
Cc1ncsc1-c1ccc([C@H](C)NC(=O)[C@@H]2C[C@@H](O)CN2C(=O)[C@@H](c2cc(CN3CC(c4cc5cc(-c6ccccc6O)nnc5[nH]4)C3)no2)C(C)C)cc1 (single isomer, unassigned) [Compound 137]	A (“A” indicates maximum degradation ≥ 75%)	< 50		
Cc1ncsc1-c1ccc([C@H](C)NC(=O)[C@@H]2C[C@@H](O)CN2C(=O)[C@@H](c2cc(OCCCN[C@@H]3CCc4[nH]c5nnc(-c6ccccc6O)cc5c4C3)no2)C(C)C)cc1 (single isomer, unassigned) [Compound 145]	A (“A” indicates maximum degradation ≥ 75%)	< 50	> 100	
Cc1ncsc1-c1ccc([C@H](C)NC(=O)[C@@H]2C[C@@H](O)CN2C(=O)[C@@H](c2cc(N3CCC(C(=O)N[C@@H]4CCc5[nH]c6nnc(-c7ccccc7O)cc6c5C4)CC3)no2)C(C)C)cc1 (single isomer, unassigned) [Compound 146]	A (“A” indicates maximum degradation ≥ 75%)	> 75	> 10	> 100
Cc1ncsc1-c1ccc([C@H](C)NC(=O)[C@@H]2C[C@@H](O)CN2C(=O)C(c2cc(C3CCN(C(=O)[C@H]4CCc5[nH]c6nnc(-c7ccccc7O)cc6c5C4)CC3)no2)C(C)C)cc1 (single isomer, unassigned) [Compound 147]	A (“A” indicates maximum degradation ≥ 75%)	> 50	> 10	> 100
Cc1ncsc1-c1ccc([C@H](C)NC(=O)[C@@H]2C[C@@H](O)CN2C(=O)[C@@H](c2cc(CCN3CC(c4cc5cc(-c6ccccc6O)nnc5[nH]4)C3)no2)C(C)C)cc1 (single isomer, unassigned) [Compound 152]	B (“B” indicates maximum degradation ≥ 50%)	< 50	> 100	

From patent US20240024488A1, “COMPOUNDS AND USES THEREOF” (Foghorn Therapeutics Inc., priority 2020, published 2024)
